Molecules are shown by their SMILES.

As a reminder, the melting point is the temperature of the solid-liquid transition. `Cc1noc(NS(=O)(=O)c2ccccc2-c2ccc(-c3ncco3)cc2CN(C)C(=O)c2ccc(F)cc2)c1C`: the melting point was in the range of 125 to 135 °C.
`Cc1ccccc1C(C)Oc1cc(OCc2ccccc2)ccc1C(=O)O` (configuration not stated) registered a melting point of 110 to 113 °C.
In the case of `COc1ccc(C(=O)Nc2ccccc2)cc1NS(=O)(=O)c1cccs1` it was 180 to 183 °C; in that of `Cc1cc(C)n(-c2nccc(Nc3ccc(Cl)cc3)n2)n1`, 136 to 140 °C.
In the case of `Clc1cc(Cl)nc(N2CCCC2)n1` it was 95 to 98 °C; in that of `O=C(Nc1ccnc(Br)c1)C1(O)CCCCC1`, 179 °C; in that of `CC(C)(C)[Si](C)(C)OCc1ccc(C(=NO)C(F)(F)F)cc1`, 63 to 65 °C.
Compound `O=C(NC1CCOCC1)c1ccc(-c2ccc3nnn(Cc4ccc5ncccc5c4)c3n2)cc1` returned a melting point of 202 to 205 °C.
With `O=C1CC(NC(=O)C2CCCN3C(=O)CCC(NC(=O)c4ccc5c(c4)OCO5)C(=O)N23)C(OCc2ccccc2)O1` (configuration not stated) the figure was 135 to 140 °C.
In the case of `O=Cc1ccc(OC(F)F)c(OCC2CC2)c1` it was 115 to 116 °C.
In the case of `COc1ccc2c(c1)CCC(c1ccc(OC)cc1OC)C2=O` (configuration not stated) it was 116 to 118 °C; in that of `CCOC(=O)C(=O)Nc1cc(OC)ccc1[N+](=O)[O-]`, 158 °C.
For `Cc1cccc(-c2[nH]c(C(C)C)nc2-c2cccc(-c3cccc(S(N)(=O)=O)c3)c2)n1`, the melting point fell in the range of 123 to 126 °C.
With `CC(C)(Oc1ccc(NC(=O)Nc2cc(Cl)cc(Cl)c2)cc1)C(=O)O` the figure was 182 to 184 °C; with `N#Cc1ccc(NC(=NS(=O)(=O)c2ccccc2)NCC(=O)O)cc1`, 133 °C; with `CCc1ccc(OCc2ccc(CO)c(CO)c2)cc1-c1ccc(C(O)(CC)CC)cc1C(C)C`, 109 °C.
With `CC(C)OC(=O)Nc1cccc(-c2ccnc3c(C(=O)c4ccco4)cnn23)c1` the figure was 140 to 143 °C; with `O=C1C=C(O)CC(c2cc(C3CCOC3)no2)C1` (configuration not stated), 142 to 144 °C.
In the case of `CC(C)n1c(S(=O)(=O)c2ccc(OCc3ccccc3)cc2)nc2ccccc21` it was 94 to 96 °C.
As for `O=C(c1cccnc1)N1CCC(c2ccccc2Cl)=N1`, the melting point lay in the range of 115 to 116 °C.
In the case of `COc1ccc(C(=O)OC2CCN(Cc3ccccc3)CC2)cc1` it was 55 to 56 °C; in that of `CCCc1nc2c(N)nc3cc(-c4cccc(C(=O)N5CCCC5)c4)ccc3c2s1`, 177 to 180 °C; in that of `Nc1cnn(CCO)c1N`, 158 to 160 °C.
Turning to `CC(C)(C)OC(=O)NCCOCCNC1(c2ccccc2Cl)C(=O)Nc2ccc(Cl)cc21` (configuration not stated), the melting point was in the range of 138 to 140 °C.
In the case of `CC(C)C(=O)N[C@@H](CSC(=O)C(C)(C)C)C(=O)NCCSC(=O)c1ccccc1` it was 112 to 114 °C.
In the case of `O=C(NN=CC(Cl)(Cl)Cl)c1cccc(Oc2cccc(C(F)(F)F)c2)n1` it was 81 to 82 °C.
In the case of `CNC1(c2ccccc2)CC=C(c2[nH]c3ccccc3c2CCc2ccncc2)CC1` (configuration not stated) it was 168 to 172 °C; in that of `Cc1cc(-c2ccccc2)n2nc(SCc3ccccc3)nc2n1`, 110 to 111 °C.
`Cc1nc(-n2ccc(OCC3CC3)cc2=O)sc1C(=O)NCc1ccccc1` showed a melting point of 218 to 220 °C.
`Cc1nc(C(N)=O)cn1-c1ccc(Cl)cc1` gave a melting point of 138 to 140 °C.
In turn, `O=C(C[C@H](NC(=O)OCc1ccccc1)C(=O)Nc1cc(Cc2n[nH]c(=O)c3ccccc23)ccc1F)OCc1ccccc1` returned a melting point of 76 to 80 °C.
In the case of `Clc1ncnc(Cl)c1I`, the melting point was in the range of 135 to 136 °C.
In the case of `Cc1nnc2n1-c1ccc(C#CCOc3ccccc3)cc1C(c1ccccc1Cl)=NC2` it was 160 to 162 °C; in that of `c1ccc(-n2c3ccccc3c3cc(-n4ccnc4-c4nccn4-c4ccc5c(c4)c4ccccc4n5-c4ccccn4)ccc32)nc1`, 215 to 227 °C; in that of `CC(=O)Nc1ccc(O)c(C)c1C`, 184 to 185 °C.
With `O=C(c1ccc(OCc2ccccc2)cc1)c1ccc(OCc2ccccc2)cc1` the figure was 188 to 190 °C; with `Nc1ncnc2c1c(-c1ccc(Oc3ccccc3CN3CCCCC3)cc1)cn2C1CCOC1` (configuration not stated), 76 to 78 °C; with `CC(=O)NCCCc1ccc(CCl)cc1`, 89 to 90 °C.
In the case of `CCCC1=C(C(=O)OCC)C(c2ccccc2Cl)c2cn(C(=O)OC)nc2N1` (configuration not stated) it was 141 to 143 °C; in that of `C[Si](C)(C)CCSCCCNC(=O)n1cc(F)c(=O)[nH]c1=O`, 114 to 115 °C.
The compound `COC(=O)C(c1ccccc1)c1cn[nH]c1` (racemic) returned a melting point of 100 to 103 °C.
In the case of `N#CC(C#N)=Cc1ccc(OS(=O)(=O)c2cc(Cl)c(Cl)cc2Cl)cc1` it was 165 to 166 °C.
In the case of `COC(=O)/C=C/c1ccc(N2CCCC2=O)nc1` it was 151 to 160 °C; in that of `NC(=O)COc1ccccc1C(=O)Nc1ccc(C(=O)N2CCCCc3ccccc32)cc1`, 198 to 199 °C; in that of `Clc1ccc(N2CCN(Cc3n[nH]c4ccccc34)CC2)nc1`, 203 to 204 °C.
In the case of `CCOC(=O)c1cn(-c2ccc(Cl)cc2)c(-c2ccc(Cl)cc2Cl)n1` it was 143 to 144 °C.
In the case of `COc1cc(/C=C2\C(=O)NC(=O)\C2=C\c2ccccc2)ccc1OC1CCCC1`, the melting point lay in the range of 203 to 204 °C.
The compound `CCCNc1ncnc2c1ncn2CCCN1CCN(c2ccccc2)CC1` came in with a melting point of 67 to 68 °C.
In the case of `O=C(O)Cc1ccc(CNC(=O)C2Cc3ccccc3N2S(=O)(=O)c2ccc(-c3ccc(F)cc3Cl)cc2)cc1` (configuration not stated) it was 119 °C.
In the case of `O=C1CSCc2cc(Cl)ccc21` it was 79.5 to 82 °C; in that of `Cc1cc(C(=O)N(C(C)C)C(C)C)ccc1[N+](=O)[O-]`, 108 to 110 °C.
`Cc1ccc(C(=O)c2cccc3c2CCC3(C)C(=O)O)cc1` (configuration not stated) had a melting point of 99 to 101 °C.
`NC(=O)CNC(=O)c1cc2c(Oc3ccc(Cl)cc3)cncc2s1` returned a melting point of 222 to 225 °C.
As to `COc1ccc(S(=O)(=O)N2CCc3cccc(-c4ccc(C(F)(F)F)cc4)c32)cc1`, the melting point lay within 180 to 181 °C.
In the case of `CC(C)(C)OC(=O)N[C@@H](Cc1ccnc(C#N)c1)C(=O)OCc1ccccc1` it was 74 to 76 °C; in that of `Cn1c([N+](=O)[O-])cnc1COc1ccc(C(F)(F)F)cc1[N+](=O)[O-]`, 126 °C; in that of `O=S(Cc1c(F)cccc1Cl)c1nc2cnccc2[nH]1` (configuration not stated), 180 to 183 °C.
With `CC(=O)Oc1cc(C)c(C)cc1C1(OC(C)=O)C(=O)c2ccccc2C1=O` the figure was 206 to 207 °C; with `Cn1nnnc1SCCCCSc1ccccn1`, 49 to 51.5 °C; with `CC(C)(C)CC(C)(C)c1ccc(Oc2cc3nc(C(C)(C)C)oc3cc2[N+](=O)[O-])cc1`, 77 to 78 °C.
As for `O=C1CCC(c2ccc(-c3ccc([N+](=O)[O-])cc3F)cc2)O1` (configuration not stated), the melting point amounted to 94 °C.
With `CNC(=N)Nc1nnc(-c2ccccc2C(F)(F)F)s1` the figure was 160 to 162 °C.
On to `COc1cccc(C(=O)O)c1C`, for which the melting point was 145 to 147 °C.
With `O=C(c1c(F)cccc1F)n1c(-c2c(F)cccc2F)nc2ccccc21` the figure was 145 °C.
With `Cc1oc(-c2ccccc2)nc1CCOc1ccc(CC(Br)C#N)cn1` (configuration not stated) the figure was 93 to 94 °C; with `COc1cc(C)c(C)[nH]c1=O`, 215 to 219 °C; with `COc1cccc(-c2noc(-c3ccccn3)n2)c1`, 90 to 94 °C.
With `COC(=O)C[C@H]1C[C@H](C=Cc2c(-c3ccc(F)cc3)c(-c3ccc(F)cc3)c(C(=O)OCc3ccccc3)n2C(C)C)OC(C)(C)O1` the figure was 125 to 127 °C; with `NS(=O)(=O)c1ccc(-n2nc(C(F)(F)F)cc2-c2ccc(-c3cscn3)c(O)c2)cc1F`, 224 to 226 °C; with `CCCCS(=O)c1ccc(C#N)nc1` (configuration not stated), 54 to 55 °C.
`CC(c1ccccc1)c1cc2c(=O)[nH]c(N)nc2s1` (configuration not stated) gave a melting point of 260 to 270 °C.
With `CN1CCN(c2cc(Cl)cc3c2c(=O)n(Cc2ccccc2Br)c(=O)n3Cc2ccccc2)CC1` the figure was 91 to 93 °C; with `CC(C)N(Sc1nc2ccccc2s1)C(C)(C)C`, 68 to 70 °C.
Compound `Cc1cnc2c(C#N)cnn2c1-c1cccc(C(F)(F)F)c1` showed a melting point of 191 to 193 °C.
In the case of `CC(=O)NC(Cc1csc2ccccc12)C(CCc1cc(C(F)(F)F)cc(C(F)(F)F)c1)=NO` (configuration not stated), the melting point fell in the range of 200 to 201 °C.
Turning to `C=CCOC(=O)c1ccc(NC(=O)C(=NO)c2ccc3c(c2)C(C)(C)CCC3(C)C)cc1`, the melting point lay in the range of 176 to 177 °C.
With `CCOC(=O)C(=CNc1cscc1OCC)C(=O)OCC` the figure was 108 to 109 °C; with `C=C(C1=C(CCC(=O)OC)C(=O)CC1O)c1ccccc1` (configuration not stated), 80 °C.
`O=C1NCCN1N=Cc1ccccc1`: the melting point is 201 to 206 °C.
With `NNC(=O)c1nn(Cc2ccc(Cl)cc2Cl)c2ccccc12` the figure was 161 to 162 °C; with `C[C@H]([C@H](O)c1ccc(O)c(O)c1)N1CCC(O)(c2ccccc2)CC1` (relative stereo), 167 to 168 °C; with `CCCCCCS(=O)(=O)c1nn2c(=O)cc(-c3ccccc3)nc2s1`, 131 to 134 °C.
Turning to `N#Cc1cc(O)cc(OCCc2ccccn2)c1N`, the melting point lay in the range of 149 to 150 °C.
In the case of `O=C(Nc1ccccc1)Nc1cccc(-c2ccc(CC34CCCN3C(=O)N(c3cc(Cl)cc(Cl)c3)C4=O)cc2)c1` (configuration not stated) it was 150 °C; in that of `CC1(C)CC(Nc2nc(NC3CC(C)(C)NC(C)(C)C3)nc(N(CO)C3CC(C)(C)NC(C)(C)C3)n2)CC(C)(C)N1`, 201 to 202 °C.
In the case of `O=C1N(c2ccc(Cl)cc2)C(Cl)(Cl)C2CCCCC12Cl` (configuration not stated) it was 120 to 124 °C; in that of `COCOc1ccc(Cl)cc1-c1cc(-c2cccc([N+](=O)[O-])c2)c(C#N)c(N)n1`, 192 to 193 °C.
